Patent publication US8187508B2, “Base agent for electrical insulating oil” (Lion Corporation, priority 2005, dated 2012)

Experiments:
[1] = Kinetic viscosity (Canon Fenske viscometer, JIS K2283); type: physicochemical
Description: (§1) It will be noted that in the following Examples and Comparative Examples, an acid value, moisture content, kinetic viscosity, flash point, oxidation stability, dielectric breakdown voltage, specific permittivity, and a content of fatty acid triglyceride are, respectively, values measured according to the following methods. • (1) Acid value: determined by a method pursuant to a potentiometric method of JIS K1557. • (2) Moisture content: determined by a method pursuant to the Carl Fisher method of JIS K0068. • (3) Kinetic viscosity: determined by a method pursuant to the Canon Fenske viscometer of JIS K2283. • (4) Flash point: determined by a method pursuant to the Cleaveland open-cup method of JIS K2265. • (5) Oxidation stability: determined by a method pursuant to the electrical insulating oil testing method of JIS C2101. • (6) Dielectric breakdown voltage: determined by a method pursuant to the electric insulating oil testing method of JIS C2101. • (7) Specific permittivity: determined by a method pursuant to the electric insulating oil testing method of JIS C2101. • (8) Content of fatty acid triglyceride: about 40 mg of a sample was placed in a 3-ml vial container, to which 0.5 ml of pyridine, 0.4 ml of hexamethyldisilazane and 0.2 ml of trimethylchlorosilane were added, followed by trimethylsilylation at 80° C. for 30 minutes and subjecting the resulting supernatant liquid to gas chromatographic analysis.

[2] = Flash point (Cleaveland open-cup method, JIS K2265); type: physicochemical
Description: as §1

[3] = Specific permittivity (JIS C2101); type: physicochemical
Description: as §1

[4] = Dielectric breakdown voltage (JIS C2101); type: physicochemical
Description: as §1

[5] = Oxidation stability test (JIS C2101); type: physicochemical; settings: for Oxidation stability test, 120° C. after 75 hours: acid value after 120° C.; for Oxidation stability test, Initial value: acid value before the test
Procedure: In order to ensure good stability to oxygen and heat, the base agent for electrical insulating oils of the invention should preferably have a total acid value of not higher than 0.5 mg of KOH/g, more preferably not higher than 0.3 mg of KOH/g, after deterioration in an oxidation stability test (120° C., 75 hours) described in JIS C2101.
as §1

human being = settings: in vivo; cited from earlier work
rabbit = settings: in vivo; cited from earlier work

Kinetic viscosity (40° C.) [1] [mm^2/s]	Flash point [2] [°C]	Specific permittivity (80° C.) [3]	Di-electric breakdown voltage [4] [KV/2.5 mm]	Oxidation stability test, 120° C. after 75 hours [5] [mgKOH/g]	Oxidation stability test, Initial value [5] [mgKOH/g]	SMILES	Dermal irritation average point (human being)	Eye irritation (rabbit)
5	175	2.7	78	0.3	0.002	CCCCCCCCCCCC(=O)OCC(CC)CCCC (centres unmarked) [2-ethyl hexyl laurate, 2-ethylhexyl laurate, reference compound]		
12.5	235	3.8	71	0.4	0.002	CCCCCCCC(=O)OCC(COC(=O)CCCCCCC)OC(=O)CCCCCCC [base agent B, caprylic acid triglyceride]		
16	220	3.5	73	0.2	0.008	CCCCC(CC)C(=O)OCC(COC(=O)C(CC)CCCC)OC(=O)C(CC)CCCC (centres unmarked) [base agent E, 2-ethylhexanoic acid triglyceride]		

The next lines start with the compound.

SMILES	Kinetic viscosity (40° C.) [1] [mm^2/s]	Flash point [2] [°C]	Specific permittivity (80° C.) [3]	Di-electric breakdown voltage [4] [KV/2.5 mm]	Oxidation stability test, 120° C. after 75 hours [5] [mgKOH/g]	Oxidation stability test, Initial value [5] [mgKOH/g]	Dermal irritation average point (human being)	Eye irritation (rabbit)
CCCCC(CC)C(=O)OCC(COC(=O)C(CC)CCCC)OC(=O)C(CC)CCCC (centres unmarked) [2-ethylhexanoic acid triglyceride]							test: average point = 0.05	rabbit, 100%, OECD 405 method: no
CC(CC(=O)OCC(COC(=O)CC(C)CC(C)(C)C)(COC(=O)CC(C)CC(C)(C)C)COC(=O)CC(C)CC(C)(C)C)CC(C)(C)C (centres unmarked) [pentaerythritol ester of 3,5,5-trimethylhexanoic acid, reference compound]	110	>250	>3.0	55	0.8	0.02		
